# Read-outs that look alike come from different tables or passages of the source.
# Assays:
# L1210 cells = assay: Cytotoxicity (cell growth, MTT) in L1210 cells; format: cell-based, mouse; details: Mus musculus, read-out: L1210 IC50
# Description: (§1) In terms of Table 1, L1210 cells are mouse leukemia cells and are the gold standard in terms of evaluating polyamine cytotoxicity data due to a plethora of prior data in this cell line for other polyamine structures. Clearly 7a was similar in all respects to 4a (Table 1). […] The lower the Ki value, the higher the affinity of the drug for the polyamine transporter (PAT) on the cell surface. Chinese hamster ovary (CHO) cells and a mutant line without an active PAT (CHO-MG) also evaluated the PAT selectivity of these drugs.
# Biological Evaluation. Once synthesized, the conjugates were screened for cytotoxicity in L1210, CHO and CHO-MG cells. L1210 (mouse leukemia) cells were selected to enable comparisons with the published IC50 and Ki values for a variety of polyamine substrates. Chinese Hamster Ovary (CHO) cells were chosen along with a mutant PAT deficient cell line (CHO-MG) in order to comment on selective transport via the PAT (Wang et al, J. Med. Chem. 2003, 46, 2663-2671; Wang et al, J. Med. Chem. 2003, 46, 2672-2682; Wang et al., J. Med. Chem. 2003, 46, 5129-5138; Delcros et al., J. Med. Chem., 2002, 45, 5098-5111).
# (§2) L1210 IC50 and Ki studies. […] The Ki values in Table 3 were determined for [^14C]spermidine uptake and reflect the affinity of the polyamine derivative for the polyamine transporter on the cell surface. With both parameters, one can determine whether high affinity for the transporter (e.g., low Ki value) translated into high cytotoxicity (e.g., low IC50 value), etc.
# (§3) Biological studies. Murine leukemia cells (L1210), CHO and CHO-MG cells were grown in RPMI medium supplemented with 10% fetal calf serum, glutamine (2 mM), penicillin (100 U/mL), streptomycin (50 μg/mL). L-Proline (2 μg/mL) was added to the culture medium for CHO-MG cells. Cells were grown at 37° C. under a humidified 5% CO2 atmosphere. Aminoguanidine (AG, 2 mM) was added to the culture medium to prevent oxidation of the drugs by the enzyme (bovine serum amine oxidase) present in calf serum. Trypan blue staining was used to determine cell viability before the initiation of a cytotoxicity experiment. Cells in early to mid log-phase were used. IC50 determinations. Cell growth was assayed in sterile 96-well microtiter plates (Becton-Dickinson, Oxnard, Calif., USA). L1210 cells were seeded at 5e^4 cells/mL of medium (100 μL/well). CHO and CHO-MG cells were plated at 2e^3 cells/mL. Drug solutions (10 μL per well) of appropriate concentration were added at the time of seeding for L1210 cells and after an overnight incubation for the CHO cell lines. After exposure to the drug for 48 hr, cell growth was determined by measuring formazan formation from 3-(4,5-dimethylthiazol-2-yl)2,5-diphenyltetrazolium using a Titertek Multiskan MCC/340 microplate reader for absorbance (540 nm) measurements (Mosmann, T., J. Immunol. Methods 1983, 65, 55-63).
# [1] = test system: polyamine transporter (PAT); assay: Ki for inhibition of [14C]spermidine uptake in L1210 cells; format: cell-based, mouse
# Description: as §1, §2
# Ki procedure. The ability of the conjugates to interact with the polyamine transport system was determined by measuring competition by the conjugates against radiolabeled spermidine uptake in L1210 cells. Initially, the Km value of spermidine transport was determined as previously described (Clément et al., Biochem. J. 1995, 312, 933-938). The ability of conjugates to compete for [^14C]spermidine uptake were determined in L1210 cells by a 10-min uptake assay in the presence of increasing concentrations of competitor, using 1 μM [^14C]spermidine as substrate. Ki values for inhibition of spermidine uptake were determined using the Cheng-Prusoff equation (Cheng and Prusoff, Biochem. Pharmacol. 1973, 22, 3099-3108) from the IC50 value derived by iterative curve fitting of the sigmoidal equation describing the velocity of spermidine uptake in the presence of the respective competitor (Torossian et al., Biochem. J., 1996, 319, 21-26). L1210 cells were grown and maintained according to established procedures (Bergeron et al., J. Med. Chem. 2000, 43, 224-235) and were washed twice in HBSS prior to the transport assay.
# CHO cells = assay: Cytotoxicity in CHO cells; format: cell-based, Chinese hamster; details: for IC50: Cricetulus griseus, CHO
# Description: as §1
# CHO and CHO-MG studies. Chinese hamster ovary (CHO) cells were chosen along with a mutant cell line (CHO-MG) in order to comment on how the synthetic conjugates gain access to cells. The CHO-MG cell line is polyamine-transport deficient and was isolated after selection for growth resistance to methylglyoxalbis(guanylhydrazone), MGBG, (CH3C[═N—NHC(═NH)NH2]CH[═N—NHC(═NH)NH2]) using a single-step selection after mutagenesis with ethylmethanesulfonate (Mandel et al., J. Cell. Physiol., 1978, 97, 335-344; Byers et al., Biochem. J. 1989, 263, 745-752).
# In contrast, the parent CHO cell line represents a cell type with high PAT activity. Comparison of conjugate cytotoxicity in these two CHO lines provided an important screen to detect selective conjugate delivery via the PAT. For example, a conjugate with high utilization of the polyamine transporter would be very toxic to CHO cells, but less so to CHO-MG cells. In short, highly-selective PAT ligands should give high (CHO-MG/CHO) IC50 ratios.
# as §3, with “Aminoguanidine (AG, 2 mM) was added to the culture medium to prevent oxidation of the drugs by the enzyme (bovine serum amine oxidase) present in calf serum.” left out
Structure (SMILES),"IC50 (L1210 cells; L1210, 48 h incubation, new data)","Ki ([1]; new data, read-out: L1210 Ki value)","IC50 (CHO cells; 48 h incubation, new data, read-out: CHO IC50)","IC50 Ratio (CHO-MG/CHO), a measure of PAT selectivity (CHO cells; new data)","IC50 (L1210 cells; L1210, in the presence of AG, 48 h at 37° C.)","IC50 (L1210 cells; L1210 experiments, no added SPD)","Ki ([1]; [14C]spermidine uptake, 10-min, 1 μM substrate, read-out: L1210 Ki values)","IC50 (CHO cells; absence of AG, 48 h, read-out: CHO IC50 w/o AG)","IC50 (CHO cells; in the presence of AG, 48 h at 37° C., read-out: CHO IC50)",CHOMG/CHO IC50 ratio in the absence of AG (CHO cells; absence of AG),IC50 Ratio (CHO-MG/CHO) w/o AG (CHO cells; absence of AG),"IC50 Ratio (CHO-MG/CHO), a measure of PAT selectivity (CHO cells; in the presence of AG)",CHOMG/CHO IC50 ratio (CHO cells; with AG),IC50 Ratio (CHO-MG/CHO) with AG (CHO cells; with AG)
"CCN(CCCNCCCN)Cc1c2ccccc2cc2ccccc12 [Compound 7a, N-(3-Amino-propyl)-N′-anthracen-9-ylmethyl-N′-ethyl-propane-1,3-diamine]",2200 nM,23500 nM,5300 nM,0.8,,,,,,,,,,
NCCCCNCCCCNCc1c2ccccc2cc2ccccc12 [Compound 6b],,,,,300 nM,300 nM,1800 nM,1740 nM,450 nM,4,4,148,148,148
